Bounds are passed on as bounds.

Results on twelve compounds are retold here after patent publication US6855730B2, “3-methylidenyl-2-indolinone modulators of protein kinase” (Sugen, Inc., priority 1998, dated 2005).

The target in this assay is T1, chimeric receptor containing the EGFR extracellular domain and intracellular HER2 kinase domain (Homo sapiens, UniProt P04626).
T1 construct: fused on or other part: EGFR ectodomain + HER2 intracellular part, ATP-site indolinones: HER2's kinase
T1 sequence (P04626 720-1255 limits assumed, change not shown): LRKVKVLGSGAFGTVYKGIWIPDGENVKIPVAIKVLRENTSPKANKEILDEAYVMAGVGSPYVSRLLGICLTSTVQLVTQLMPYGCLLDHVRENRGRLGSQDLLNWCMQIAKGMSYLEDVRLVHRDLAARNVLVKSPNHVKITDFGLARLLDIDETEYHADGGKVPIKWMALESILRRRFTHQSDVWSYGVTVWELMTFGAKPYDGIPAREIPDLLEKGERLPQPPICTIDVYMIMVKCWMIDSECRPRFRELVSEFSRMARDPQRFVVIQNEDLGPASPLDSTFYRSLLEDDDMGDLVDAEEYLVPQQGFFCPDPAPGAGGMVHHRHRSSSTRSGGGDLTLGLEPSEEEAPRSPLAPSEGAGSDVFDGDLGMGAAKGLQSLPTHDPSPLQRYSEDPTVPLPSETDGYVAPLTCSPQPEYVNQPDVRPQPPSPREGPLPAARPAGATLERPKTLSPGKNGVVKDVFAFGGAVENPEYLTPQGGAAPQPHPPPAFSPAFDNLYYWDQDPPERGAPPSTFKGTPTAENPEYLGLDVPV
In words: EGF Receptor-HER2 chimeric receptor assay in whole cells (ELISA). It counts as cell-based. The following applies: read-out: HER-2 kinase IC50. The procedure, abridged: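 NIH3T3 cells overexpressing EGFR-extracellular/HER2-kinase chimera, seeded in 0.5% serum for ~40 h, were pretreated with compound (1% final DMSO) 2 h at 37 °C, then stimulated with 100 nM EGF for 5 min. Lysates captured on anti-EGFR plates; phosphotyrosine detected by anti-Ptyr/HRP ELISA at 410 nm as percent inhibition.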
Regarding `Cc1cccc2c1/C(=C/c1ccc3c(c1)CCO3)C(=O)N2` [Example 69, 3-(2,3-Dihydrobenzofuran-5-ylmethylene)-4-methyl-1,3-dihydroindol-2-one], the IC50 was above 100 µM.

On to `COc1c(C(C)C)cc(/C=C2/C(=O)Nc3ccc(C)cc32)cc1C(C)C` [Example 19, 3-(3,5-Diisopropyl-4-methoxybenzylidene)-5-methyl-1,3-dihydroindol-2-one], for which the IC50 was 9.2 µM. With `COc1ccc(/C=C2/C(=O)Nc3ccccc32)cc1C(C)C` [Example 7, 3-(3-Isopropyl-4-methoxybenzylidene)-1,3-dihydroindol-2-one] the figure was above 100 µM. Take `COc1c(C)cc(/C=C2/C(=O)Nc3ccc(Cl)cc32)cc1C` [Example 21, 5-Chloro-3-(4-methoxy-3,5-dimethylbenzylidene)-1,3-dihydroindol-2-one]: the IC50 worked out at 11.8 µM. In the case of `COc1c(C(C)C)cc(/C=C2/C(=O)Nc3cc(O)ccc32)cc1C(C)C` [Example 4, 3-(3,5-Diisopropyl-4-methoxybenzylidene)-6-hydroxy-1,3-dihydroindol-2-one], the IC50 was found to be 5.8 µM.

Turning to `O=C1Nc2ccc(F)cc2/C1=C\c1ccc2c(c1)CCO2` [Example 42, 3-(2,3-Dihydrobenzofuran-5-ylmethylene)-5-fluoro-1,3-dihydroindol-2-one], the IC50 was 47.5 µM. With `COc1ccc(/C=C2\C(=O)Nc3cccc(C)c32)cc1C1CCCC1` [Example 48, 3-(3-Cyclopentyl-4-methoxybenzylidene)-4-methyl-1,3-dihydroindol-2-one] the figure was 65 µM.

With `CCOc1cccc(-c2cc(C=C3C(=O)Nc4ccccc43)ccc2OC)c1` [Example 46, 3-(3′-Ethoxy-6-methoxybiphenyl-3-ylmethylene)-1,3-dihydroindol-2-one], the IC50 is 59.9 µM. With `COc1c(C(C)C)cc(/C=C2/C(=O)Nc3ccc(N)cc32)cc1C(C)C` [Example 20, 5-Amino-3-(3,5-diisopropyl-4-methoxy-benzylidene)-1,3-dihydroindol-2-one] the figure was 38.6 µM; with `COc1ccc(/C=C2/C(=O)Nc3ncccc32)cc1C1CCCC1` [Example 47, 3-(3-Cyclopentyl-4-methoxybenzylidene)-1,3-dihydropyrrolo[2,3-b]pyridin-2-one], 60.6 µM. With `O=C1Nc2ccc(Br)cc2/C1=C/c1cc2ccccc2[nH]1` [Example 165, 5-Bromo-3-(1H-indol-2-ylmethylene)-1,3-dihydro-indol-2-one] the figure was above 100 µM.

For `COc1ccc(/C=C2/C(=O)Nc3ncccc32)cc1C(C)C` [Example 70, 3-(3-Isopropyl-4-methoxybenzylidene)-1,3-dihydropyrrolo[2,3-b]pyridine-2-one], the IC50 was above 100 µM.
